Laboratory results: BigSolDB 2.1

COC(=O)/C=C/C(=O)OC
Conditions	solubility (mole fraction)
in ethanol, 289.95 K	0.00328
in ethanol, 294.45 K	0.00465
in ethanol, 297.55 K	0.00607
in ethanol, 303.15 K	0.00908
in ethanol, 307.3 K	0.0122
in ethanol, 311.1 K	0.0157
in ethanol, 314.75 K	0.0199
in ethanol, 318.65 K	0.0253
in ethanol, 322.55 K	0.0326
in ethanol, 327.35 K	0.0431
in ethanol, 331.85 K	0.058
in ethanol, 336.05 K	0.0751
in isopropanol, 295.8 K	0.00533
in isopropanol, 300.95 K	0.00748
in isopropanol, 304.35 K	0.0097
in isopropanol, 306.7 K	0.0117
in isopropanol, 309.85 K	0.0148
in isopropanol, 312.55 K	0.0183
in isopropanol, 316.85 K	0.025
in isopropanol, 320 K	0.0318
in isopropanol, 322.8 K	0.0396
in isopropanol, 326.25 K	0.0486
in isopropanol, 329.75 K	0.0629
in isopropanol, 332.85 K	0.0785
in isopropanol, 335.8 K	0.0997
in methanol, 297.45 K	0.00749
in methanol, 301 K	0.00948
in methanol, 305.55 K	0.0122
in methanol, 309.17 K	0.0152
in methanol, 312.85 K	0.0189
in methanol, 316.45 K	0.0231
in methanol, 319.37 K	0.0279
in methanol, 322.28 K	0.0335
in methanol, 325.93 K	0.04
in methanol, 329.15 K	0.0491
in methanol, 332.3 K	0.06
in methanol, 337.65 K	0.081
in n-propanol, 295.2 K	0.00504
in n-propanol, 299.95 K	0.00668
in n-propanol, 304.35 K	0.00906
in n-propanol, 307.85 K	0.0114
in n-propanol, 310.7 K	0.0138
in n-propanol, 313.2 K	0.0174
in n-propanol, 318.7 K	0.0253
in n-propanol, 323.65 K	0.0369
in n-propanol, 328.95 K	0.0535
in n-propanol, 332.5 K	0.0686
in n-propanol, 335.65 K	0.087
in n-propanol, 338.15 K	0.106
in n-propanol, 341.3 K	0.136
in propylene glycol, 302.75 K	0.000378
in propylene glycol, 307.05 K	0.000797
in propylene glycol, 310.55 K	0.00143
in propylene glycol, 314.25 K	0.00255
in propylene glycol, 316.75 K	0.00366
in propylene glycol, 320.05 K	0.00586
in propylene glycol, 323.25 K	0.00886
in propylene glycol, 327.95 K	0.0149
in propylene glycol, 332.15 K	0.023
in propylene glycol, 337.25 K	0.0349
in propylene glycol, 342.35 K	0.051
in propylene glycol, 347.15 K	0.073
in water, 300.55 K	9.27e-05
in water, 302.6 K	0.000116
in water, 309.85 K	0.000236
in water, 315.45 K	0.000365
in water, 322.4 K	0.000575
in water, 328.05 K	0.000781
in water, 333.25 K	0.000989
in water, 337.05 K	0.00113
in water, 340.65 K	0.00132
in water, 344.45 K	0.00148
